Measurements taken from patent publication US12053506B2, “Romo1-derived antimicrobial peptides and variants thereof” (priority 2019, dated 2024).
No end group written: not given here.

Experiments:
CRPA = assay: MBC, evaluation of antibacterial activities of KU-5878 variants; type: cell-based; details: Tables 11-15, no unit printed
Description: Variants were prepared by deleting one amino acid from the amino acid sequence of KU-5878 (SEQ ID NO: 13), and the antibacterial activities thereof were evaluated.
Variants were prepared by deleting two or more amino acids from the amino acid sequence of KU-5878 (SEQ ID NO: 13), and the antibacterial activities thereof were evaluated.
One amino acid in the amino acid sequence of KU-5878 (SEQ ID NO: 13) was substituted, and the antibacterial activities of the peptides were evaluated.
Substitutions of Q62K, S63K and T66K were sequentially added to the amino acid sequence of KU-5878-T59K, and the antibacterial activities of the peptides were evaluated.
An amino acid repeat sequence was added to the C-terminus of KU-5878, and the antibacterial activities of the peptides were evaluated. According to Table 15 below, when the R (arginine) repeat sequence or K (lysine) sequence was added to the C-terminus of KU-5878, the antibacterial activity of the peptide increased.

[1] = system: multidrug-resistant Pseudomonas aeruginosa; details: 4 h
Description: (§1) First, each of Pseudomonas aeruginosa (ATCC 27853) and Staphylococcus aureus (ATCC 29213) was cultured in 3% (w/v) TSB (Tryptic Soy Broth) liquid medium at 37° C. and 200 rpm for 4 hours, and then further cultured under the same conditions for 3 hours to a concentration of 5×10^6 CFU/ml. Strain solutions were prepared by diluting each of the further cultured strains with SP (sodium phosphate; 10 mM sodium phosphate, 1% TSB) buffer to a final concentration of 2×10^5 CFU/ml.
(§2) Then, each peptide at varying concentrations (0 μg/ml to 300 μg/ml) was dispensed into each well of a 96-well microplate, and 100 μl (1×10^5 CFU/ml) of each of the prepared strain solutions was added thereto, mixed therewith, and allowed to react with the peptide in an incubator at 37° C. for 1 hour.
(§3) In addition, 30 g/L of TS (tryptic soy) and 15 g/L of agar were dissolved in distilled water and sterilized, and then 25 ml of the solution was poured onto a 100 mm round plate and solidified at room temperature for one day or more, thereby preparing a TS agar plate. 10 μl of each reaction solution of the peptide and the strain was plated on the TS agar plate at a constant size, and incubated in an incubator at 37° C. for 18 hours, and then colony formation on the plate was checked.
(§4) Specifically, each type of bacteria was cultured in 3% (w/v) TSB (Tryptic Soy Broth) liquid medium at 37° C. and 200 rpm for 4 hours, and then further cultured under the same conditions for 3 hours to a concentration of 5×10^6 CFU/ml. Strain solutions were prepared by diluting each of the […] of 2×10^5 CFU/ml.
as §2, with “Then, the KU-5878” for “Then, each”
(§5) In addition, 10 μl of each reaction solution of the peptide and the strain was plated on the TS agar plate at a constant size, and incubated in an incubator at 37° C. for 18 hours, and then colony formation on the plate was checked.
Meanwhile, the multidrug-resistant Pseudomonas aeruginosa, multidrug-resistant Acinetobacter and multidrug-resistant Klebsiella in Table 2 below were bacteria isolated from patients at Korea University Anam Hospital. […] Then, these bacteria were used in the experiment.

[2] = system: methicillin-resistant Staphylococcus aureus (ATCC 33591); details: for MBC value (μg/ml) against methicillin-resistant Staphylococcus aureus: ATCC 33591, 4 h; for MBC MRSA: Tables 11-15, no unit printed
Description: as §1, §2, §3, §4
as §2, with “Then, the KU-5878” for “Then, each”
as §5

[3] = system: Staphylococcus aureus (ATCC 29213); type: cell-based; details: for MBC value (μg/ml) against Staphylococcus aureus: ATCC 29213, 1 h; for MBC Staphylococcus aureus: Tables 11-15, no unit printed
Text: (§6) Romo1 protein comprises two α-helices. The present inventors synthesized the α-helix 2 region having both hydrophilicity and hydrophobicity, and evaluated the antibacterial activity thereof using minimum bactericidal concentration (MBC) assay. The α-helix 2 region was named KU-5279 (the 52-79 amino acid region of Romo1 protein). Then, in order to identify peptides that are beneficial for human application and have excellent antibacterial activity, the present inventors synthesized several peptides comprising a sequence of contiguous amino acids starting at any amino acid selected from the 52-79 amino acid region of Romo1 protein, and comparatively evaluated the antibacterial activities of the peptides by minimum bactericidal concentration assay (See Table 1 below for information on each peptide). Evaluation of the antibacterial activity of each peptide by minimum bactericidal concentration assay was specifically performed as follows. First, each of Pseudomonas aeruginosa (ATCC 27853) and Staphylococcus aureus (ATCC 29213) was cultured in 3% (w/v) TSB (Tryptic Soy Broth) liquid medium at 37° C. and 200 rpm for 4 hours, and then further cultured under the same conditions for 3 hours to a concentration of 5×10^6 CFU/ml. Strain solutions were prepared by diluting each of the further cultured strains with SP (sodium phosphate; 10 mM sodium phosphate, 1% TSB) buffer to a final concentration of 2×10^5 CFU/ml. Then, each peptide at varying concentrations (0 μg/ml to 300 μg/ml) was dispensed into each well of a 96-well microplate, and 100 μl (1×10^5 CFU/ml) of each of the prepared strain solutions was added thereto, mixed therewith, and allowed to react with the peptide in an incubator at 37° C. for 1 hour. In addition, 30 g/L of TS (tryptic soy) and 15 g/L of agar were dissolved in distilled water and sterilized, and then 25 ml of the solution was poured onto a 100 mm round plate and solidified at room temperature for one day or more, thereby preparing a TS agar plate. 10 μl of each reaction solution of the peptide and the strain was plated on the TS agar plate at a constant size, and incubated in an incubator at 37° C. for 18 hours, and then colony formation on the plate was checked. The minimum bactericidal concentration was defined as the minimum concentration of the peptide at which no colony was formed, and the experimental results are shown in Table 1 below.

[4] = system: Pseudomonas aeruginosa (ATCC 27853); type: cell-based; details: for MBC value (μg/ml) against Pseudomonas aeruginosa: ATCC 27853, 1 h; for MBC Pseudomonas aeruginosa: Tables 11-15, no unit printed
Text: as §6

| Substance | MBC CRPA (CRPA) [µg/mL] | MBC value (μg/ml) against multidrug-resistant Pseudomonas aeruginosa [1] [µg/mL] | MBC value (μg/ml) against methicillin-resistant Staphylococcus aureus [2] [µg/mL] | MBC MRSA [2] [µg/mL] | MBC value (μg/ml) against Staphylococcus aureus [3] [µg/mL] | MBC Staphylococcus aureus [3] [µg/mL] | MBC value (μg/ml) against Pseudomonas aeruginosa [4] [µg/mL] | MBC Pseudomonas aeruginosa [4] [µg/mL] |
| --- | --- | --- | --- | --- | --- | --- | --- | --- |
| KKMMQSGGTFGTFMAIGMGIR [KU-5878-T59K] | 50 | 45 | 45 | 50 | 40 | 40 | 50 | 50 |
| RTMMQSGGTFGTFMAIGMGIR [KU-5878-K58R] | 120 | 120 | 130 | 120 | 120 | 120 | 120 | 120 |
| KKMMKKGGTFGTFMAIGMGIR [KU-5878-K3] | 4 | 4 | 5 | 5 | 4 | 4 | 4 | 4 |
| ATMMQSGGTFGTFMAIGMGIR [KU-5878-K58A] | > 300 | >300 | >300 | > 300 | >300 | > 300 | >300 | > 300 |
| KTMMQSGGTFGTFMAIGMGIA [KU-5878-R78A] | > 300 | >300 | >300 | > 300 | >300 | > 300 | >300 | > 300 |
| KRMMQSGGTFGTFMAIGMGIR [KU-5878-T59R] | 30 | 35 | 30 | 30 | 25 | 25 | 30 | 30 |
| KTMMKSGGTFGTFMAIGMGIR [KU-5878-Q62K] | 90 | 90 | 85 | 90 | 80 | 80 | 90 | 90 |
| KTMMQSGGKFGTFMAIGMGIR [KU-5878-T66K] | 70 | 80 | 70 | 80 | 60 | 60 | 80 | 80 |
| KTMMQSGGTFGKFMAIGMGIR [KU-5878-T69K] | 150 | 150 | 150 | 150 | 130 | 130 | 140 | 140 |
| KTMMASGGTFGTFMAIGMGIR [KU-5878-Q62A] | > 300 |  |  | > 300 |  | > 300 |  | > 300 |
| KTMMQSGGTFGTKMAIGMGIR [KU-5878-F70K] | > 300 |  |  | > 300 | >300 | > 300 | >300 | > 300 |
| KTMMQSGGTFGTF-AIGMGIR [Peptide 5878-d71M] | 300 |  |  | 300 |  | 250 |  | 250 |
| KT-MQSGGTFGTFMAIGMGIR [Peptide 5878-d60M] | 90 |  |  | 100 |  | 90 |  | 90 |
| KT-MQS-GTFGTF--IG-GIR [5878-d60M, d64G, d71M, d72A, d75M] | 200 |  |  | 200 |  | 200 |  | 200 |
| KTMMQSGGTFGTFMAI-MGIR [Peptide 5878-d74G] | 30 |  |  | 25 |  | 25 |  | 20 |
| KTMMQSGGTFGTFMAIGMGIRKK [Peptide 5878-KK] | 16 |  |  | 16 |  | 16 |  | 15 |
| KTMMQSGGHFGTFMAIGMGIR [KU-5878-T66H] | > 300 |  |  | > 300 |  | > 300 |  | > 300 |
| KTMMQSGGTFGTWMAIGMGIR [KU-5878-F70W] | 300 |  |  | > 300 | 300 | 300 | 300 | 300 |
| KTMMSSGGTFGTFMAIGMGIR [KU-5878-Q62S] | > 300 |  |  | > 300 |  | > 300 |  | > 300 |
| -TMMQSGGTFGTFMAIGMGIR [Peptide 5878-d58K] | 300 |  |  | > 300 |  | 300 |  | 300 |
| KTMMQSGGTFGTFMAIGMGI- [Peptide 5878-d78R] | > 300 |  |  | > 300 |  | 300 |  | 300 |
| KTMMQSGGTFGTFM-IGMGIR [Peptide 5878-d72A] | 170 |  |  | 160 |  | 150 |  | 150 |
| KTMMQTGGTFGTFMAIGMGIR [KU-5878-S63T] | > 300 |  |  | > 300 |  | > 300 |  | > 300 |
